Data on nine compounds can be found in publication PMC12092823 (Scientific Reports, 2025).

Experiment [1] relates to α-glucosidase. Put plainly: In vitro α-glucosidase inhibition assay. The following applies: for anti-α-glucosidase activity in words: in comparison to acarbose or compound 14b; for folds more active than acarbose against α-glucosidase: versus acarbose. The experiment is classed as biochemical, yeast.
For experiment [2], the system named is α-glucosidase. Put plainly: Kinetic study. The class given is biochemical, yeast. The following applies: Lineweaver–Burk plots.

Consider `COc1ccc(-c2nc(C(=O)NCc3cn(CC(=O)Nc4cccc(Cl)c4)nn3)cc3c2[nH]c2ccccc23)cc1` [Compound 14i, N-((1-(2-((3-chlorophenyl)amino)-2-oxoethyl)-1 H-1,2,3-triazol-4-yl)methyl)-1-(4-methoxyphenyl)-9 H-pyrido[3,4-b]indole-3-carboxamide], for which, in the experiment with α-glucosidase [1], the “anti-α-glucosidase activity in words” value was “significant inhibitor”.

On to `Cc1cc([N+](=O)[O-])ccc1NC(=O)Cn1cc(CNC(=O)c2cc3c([nH]c4ccccc43)c(-c3ccc(Cl)cc3)n2)nn1` [14 L, 1-(4-chlorophenyl)-N-((1-(2-((2-methyl-4-nitrophenyl)amino)-2-oxoethyl)-1 H-1,2,3-triazol-4-yl)methyl)-9 H-pyrido[3,4-b]indole-3-carboxamide], for which the “anti-α-glucosidase activity in words” value in the experiment on α-glucosidase [1] is reported as “good”.

Consider `Cc1cc([N+](=O)[O-])ccc1NC(=O)Cn1cc(CNC(=O)c2cc3c([nH]c4ccccc43)c(-c3ccccc3)n2)nn1` [Compound 14c, N-((1-(2-((2-methyl-4-nitrophenyl)amino)-2-oxoethyl)-1 H-1,2,3-triazol-4-yl)methyl)-1-phenyl-9 H-pyrido[3,4-b]indole-3-carboxamide], for which the “decrease of anti-α-glucosidase activity relative to compound 14b” value with α-glucosidase [1] (versus compound 14b) amounted to 10 folds.

Turning to `O=C(Cn1cc(CNC(=O)c2cc3c([nH]c4ccccc43)c(-c3ccc(Cl)cc3)n2)nn1)Nc1cccc(Cl)c1` [Compound 14n, 1-(4-chlorophenyl)-N-((1-(2-((3-chlorophenyl)amino)-2-oxoethyl)-1 H-1,2,3-triazol-4-yl)methyl)-9 H-pyrido[3,4-b]indole-3-carboxamide], the “anti-α-glucosidase activity in words” value in the experiment on α-glucosidase [1] is given as “good”.

Take `O=C(Cn1cc(CNC(=O)c2cc3c([nH]c4ccccc43)c(-c3ccc(Cl)cc3)n2)nn1)Nc1ccccc1` [Compound 14j, 1-(4-chlorophenyl)-N-((1-(2-oxo-2-(phenylamino)ethyl)-1 H-1,2,3-triazol-4-yl)methyl)-9 H-pyrido[3,4-b]indole-3-carboxamide]: the “folds more active than acarbose against α-glucosidase” value in the experiment on α-glucosidase [1] is given as “around 5 folds”.

Regarding `Cc1ccccc1NC(=O)Cn1cc(CNC(=O)c2cc3c([nH]c4ccccc43)c(-c3ccc(Cl)cc3)n2)nn1` [Compound 14k, 1-(4-chlorophenyl)-N-((1-(2-oxo-2-(o-tolylamino)ethyl)-1 H-1,2,3-triazol-4-yl)methyl)-9 H-pyrido[3,4-b]indole-3-carboxamide], in the experiment with α-glucosidase [1] (versus compound 14 L), the “inhibitory activity diminished relative to compound 14 L” value worked out at 3 folds.

On to `O=C(Cn1cc(CNC(=O)c2cc3c([nH]c4ccccc43)c(-c3ccc(Cl)cc3)n2)nn1)Nc1ccccc1F` [14 m, 1-(4-chlorophenyl)-N-((1-(2-((2-fluorophenyl)amino)-2-oxoethyl)-1 H-1,2,3-triazol-4-yl)methyl)-9 H-pyrido[3,4-b]indole-3-carboxamide], for which, in the experiment with α-glucosidase [1], the “folds more active than acarbose against α-glucosidase” value is reported as “around 5 folds”.

In the case of `COc1ccc(NC(=O)Cn2cc(CNC(=O)c3cc4c([nH]c5ccccc54)c(-c4ccccc4)n3)nn2)c([N+](=O)[O-])c1` [Compound 14e, N-((1-(2-((4-methoxy-2-nitrophenyl)amino)-2-oxoethyl)-1 H-1,2,3-triazol-4-yl)methyl)-1-phenyl-9 H-pyrido[3,4-b]indole-3-carboxamide], the “anti-α-glucosidase activity in words” value in the experiment on α-glucosidase [1] is “moderate”.

For `Cc1ccccc1NC(=O)Cn1cc(CNC(=O)c2cc3c([nH]c4ccccc43)c(-c3ccccc3)n2)nn1` [Compound 14b, N-((1-(2-oxo-2-(o-tolylamino)ethyl)-1 H-1,2,3-triazol-4-yl)methyl)-1-phenyl-9 H-pyrido[3,4-b]indole-3-carboxamide], in the experiment on α-glucosidase [2], the “effect of increasing inhibitor concentration on Km and Vmax” value was “decrease in Km and Vmax”; the “type of α-glucosidase inhibition” value is “uncompetitive”. In addition, the “anti-α-glucosidase activity in words” value in the experiment on α-glucosidase [1] is “significant”.
